Drawing on patent publication US20250179078A1, “INHIBITORS OF NLRP3” (PTC THERAPEUTICS, INC., priority 2022, published 2025), this text covers IC50 for 31 compounds.

For the experiment, the target named is T1, NLRP3 (Homo sapiens, UniProt Q96P20).
T1 construct: host or cells: THP-1 cells differentiated with PMA
T1 sequence (Q96P20 whole entry): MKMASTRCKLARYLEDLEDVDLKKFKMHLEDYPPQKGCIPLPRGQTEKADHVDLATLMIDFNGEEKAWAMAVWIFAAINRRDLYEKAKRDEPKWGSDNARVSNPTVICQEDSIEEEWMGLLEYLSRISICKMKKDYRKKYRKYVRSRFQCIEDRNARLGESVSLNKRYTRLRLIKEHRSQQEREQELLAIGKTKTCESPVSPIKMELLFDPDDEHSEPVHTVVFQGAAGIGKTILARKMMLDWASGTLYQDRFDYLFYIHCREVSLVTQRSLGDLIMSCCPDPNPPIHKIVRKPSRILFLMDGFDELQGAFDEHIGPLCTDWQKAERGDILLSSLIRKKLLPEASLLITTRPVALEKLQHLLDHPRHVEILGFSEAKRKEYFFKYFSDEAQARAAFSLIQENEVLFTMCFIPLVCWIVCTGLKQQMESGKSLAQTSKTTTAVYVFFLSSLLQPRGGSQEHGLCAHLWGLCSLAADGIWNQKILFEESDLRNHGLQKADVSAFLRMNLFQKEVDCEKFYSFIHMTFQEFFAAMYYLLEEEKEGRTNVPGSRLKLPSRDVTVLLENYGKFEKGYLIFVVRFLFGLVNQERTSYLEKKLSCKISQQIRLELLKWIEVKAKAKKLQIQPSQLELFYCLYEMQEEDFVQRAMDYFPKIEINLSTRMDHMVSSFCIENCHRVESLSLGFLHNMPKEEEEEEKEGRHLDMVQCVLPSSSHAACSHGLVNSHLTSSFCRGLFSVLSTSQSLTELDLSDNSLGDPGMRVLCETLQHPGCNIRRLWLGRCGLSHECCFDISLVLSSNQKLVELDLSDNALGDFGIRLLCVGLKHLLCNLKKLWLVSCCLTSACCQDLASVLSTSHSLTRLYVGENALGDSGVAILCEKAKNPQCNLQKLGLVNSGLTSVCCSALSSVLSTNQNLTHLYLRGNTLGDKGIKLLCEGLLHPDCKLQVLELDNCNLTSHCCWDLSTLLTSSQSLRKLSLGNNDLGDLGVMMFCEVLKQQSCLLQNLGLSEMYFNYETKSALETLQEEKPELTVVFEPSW
The experiment can be described thus: IL-1β Secretion Assay (NLRP3-dependent IL1β secretion in THP1 cells). The conditions noted are these: PMA-differentiated THP-1 cells; compounds incubated 20 h; 2.5 μM Nigericin 3 h; HTRF IL-1β readout; read-out: IC50 IL-1β Inhibition. In kind it is cell-based. Summed up: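 IL-1β in conditioned media, measured by HTRF after 3 h 2.5 μM nigericin stimulation, gave % inhibition fitted logistically for IC50. Before that, PMA-differentiated (100 ng/mL, 24 h) THP-1 cells were preincubated 20 h with 7 compound concentrations (3-fold serial, DMSO 1:200).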
For the compound `CCN1CC[C@H](O)[C@@H](Nc2nnc(-c3ccc(C(F)(F)F)cc3OC(F)F)c3cccn23)C1` [Compound 46, (3S,4S)-3-({1-[2-(difluoromethoxy)-4-(trifluoromethyl)phenyl]pyrrolo[1,2-d][1,2,4]triazin-4-yl}amino)-1-ethylpiperidin-4-ol], the IC50 (commonly the concentration needed to halve the response being measured) was in the range of 10 to 100 nM.
The value for `Cc1ccc(-c2nnc(N[C@H]3C[C@@](C)(O)C3)n3nc(C)cc23)c(CC(F)(F)F)c1` [Compound 390, (1s,3s)-1-methyl-3-({2-methyl-4-[4-methyl-2-(2,2,2-trifluoroethyl)phenyl]pyrazolo[1,5-d][1,2,4]triazin-7-yl}amino)cyclobutan-1-ol] was 1 to 10 nM; that for `OCCN1CCC[C@@H](Nc2nnc(-c3ccc(C(F)(F)F)cc3C(F)(F)F)c3c(F)ccn23)C1` [Compound 30, 2-[(3R)-3-({1-[2,4-bis(trifluoromethyl)phenyl]-8-fluoropyrrolo[1,2-d][1,2,4]triazin-4-yl}amino)piperidin-1-yl]ethan-1-ol] was 1 to 10 nM.
The result for `C[C@]1(O)C[C@@H](Nc2nnc(-c3ccc(Cl)cc3OC(F)(F)F)c3cncn23)C1` [Compound 299, (1s,3s)-3-({1-[4-chloro-2-(trifluoromethoxy)phenyl]imidazo[1,5-d][1,2,4]triazin-4-yl}amino)-1-methylcyclobutan-1-ol] reads 1 to 10 nM; that for `OCCN1CCC[C@@H](Nc2nnc(-c3ccc(C(F)(F)F)cc3OC3CC3)c3cccn23)C1` [Compound 179, 2-[(3R)-3-({1-[2-(cyclopropyloxy)-4-(trifluoromethyl)phenyl]pyrrolo[1,2-d][1,2,4]triazin-4-yl}amino)piperidin-1-yl]ethan-1-ol], 10 to 100 nM.
The value for `COc1ccc(-c2nnc(N[C@H]3C[C@@](C)(O)C3)n3cncc23)c(OCC(F)(F)F)c1` [Compound 305, (1s,3s)-3-({1-[4-methoxy-2-(2,2,2-trifluoroethoxy)phenyl]imidazo[1,5-d][1,2,4]triazin-4-yl}amino)-1-methylcyclobutan-1-ol] was 10 to 100 nM.
Take `OCCN1CCC[C@@H](Nc2nnc(-c3ccc(C(F)(F)F)cc3F)c3cccn23)C1` [Compound 21, 2-[(3R)-3-({1-[2-fluoro-4-(trifluoromethyl)phenyl]pyrrolo[1,2-d][1,2,4]triazin-4-yl}amino)piperidin-1-yl]ethan-1-ol]: the half-inhibitory concentration (IC50) lay in the range of 10 to 100 nM.
For the compound `Cc1cc2c(-c3ccc(C(F)(F)F)cc3C(F)(F)F)nnc(N[C@H]3CCCC[C@@H]3O)n2c1` [Compound 132, (1S,2S)-2-({1-[2,4-bis(trifluoromethyl)phenyl]-7-methylpyrrolo[1,2-d][1,2,4]triazin-4-yl}amino)cyclohexan-1-ol], the IC50 was 10 to 100 nM.
The result for `CCN1CCC[C@@H](Nc2nnc(-c3ccc(C)cc3S(C)(=O)=O)c3cc(C)nn23)C1` [Compound 368, N-[(3R)-1-ethylpiperidin-3-yl]-4-[2-(methanesulfonyl)-4-methylphenyl]-2-methylpyrazolo[1,5-d][1,2,4]triazin-7-amine] reads 10 to 100 nM; that for `COc1ccc(-c2nnc(N[C@H]3C[C@@](C)(O)C3)n3cccc23)c(Cl)c1` [Compound 72, (1s,3s)-3-{[1-(2-chloro-4-methoxyphenyl)pyrrolo[1,2-d][1,2,4]triazin-4-yl]amino}-1-methylcyclobutan-1-ol], 10 to 100 nM.
The result for `FC(F)(F)c1ccc(-c2nnc(N[C@@H]3CCCOC3)n3cncc23)c(C(F)(F)F)c1` [Compound 254, 1-[2,4-bis(trifluoromethyl)phenyl]-N-[(3R)-oxan-3-yl]imidazo[1,5-d][1,2,4]triazin-4-amine] reads 10 to 100 nM; that for `CCN1CCC[C@@H](Nc2nnc(-c3ccc(OC)cc3C(F)(F)F)c3cc(C)nn23)C1` [Compound 373, N-[(3R)-1-ethylpiperidin-3-yl]-4-[4-methoxy-2-(trifluoromethyl)phenyl]-2-methylpyrazolo[1,5-d][1,2,4]triazin-7-amine], below 1 nM.
The value for `COc1ccc(-c2nnc(N[C@@H]3CCCC[C@H]3O)n3cncc23)c(OC(F)(F)F)c1` [Compound 223, (1R,2R)-2-({1-[4-methoxy-2-(trifluoromethoxy)phenyl]imidazo[1,5-d][1,2,4]triazin-4-yl}amino)cyclohexan-1-ol] was 1 to 10 nM.
Regarding `Cc1ccc(-c2nnc(N[C@@H]3CCCN(CCO)C3)n3cncc23)c(OC(F)(F)F)c1` [Compound 355, 2-[(3R)-3-({1-[4-methyl-2-(trifluoromethoxy)phenyl]imidazo[1,5-d][1,2,4]triazin-4-yl}amino)piperidin-1-yl]ethan-1-ol], the IC50 fell in the range of 10 to 100 nM.
With `COc1cc(C)c(-c2nnc(N[C@@H]3CCCN(C)C3)n3cccc23)c(F)c1` [Compound 118, 1-(2-fluoro-4-methoxy-6-methylphenyl)-N-[(3R)-1-methylpiperidin-3-yl]pyrrolo[1,2-d][1,2,4]triazin-4-amine], the IC50 was below 1 nM.
Consider `O=C1NCCCC1Nc1nnc(-c2ccc(C(F)(F)F)cc2C(F)(F)F)c2cncn12` (stereo not shown) [Compound 276, 3-({1-[2,4-bis(trifluoromethyl)phenyl]imidazo[1,5-d][1,2,4]triazin-4-yl}amino)piperidin-2-one], for which the IC50 was in the range of 10 to 100 nM.
The result for `O[C@@H]1CCCC[C@H]1Nc1nnc(-c2ccc(C(F)(F)F)cc2CC(F)(F)F)c2cccn12` [Compound 90, (1R,2R)-2-({1-[2-(2,2,2-trifluoroethyl)-4-(trifluoromethyl)phenyl]pyrrolo[1,2-d][1,2,4]triazin-4-yl}amino)cyclohexan-1-ol] reads below 1 nM; that for `COc1ccc(-c2nnc(NC3CCNC3=O)n3cncc23)c(C(F)(F)F)c1` (stereo not shown) [Compound 235, 3-({1-[4-methoxy-2-(trifluoromethyl)phenyl]imidazo[1,5-d][1,2,4]triazin-4-yl}amino)pyrrolidin-2-one], 1 to 10 nM.
The value for `O[C@@H]1CCCC[C@H]1Nc1nnc(-c2ccc(Br)cc2OC(F)(F)F)c2cncn12` [Compound 307, (1R,2R)-2-({1-[4-bromo-2-(trifluoromethoxy)phenyl]imidazo[1,5-d][1,2,4]triazin-4-yl}amino)cyclohexan-1-ol] was 1 to 10 nM; that for `COc1cccc(C(C)Nc2nnc(-c3ccc(OC)cc3C(F)(F)F)c3c(F)ccn23)c1` (stereo not shown) [Compound 148, 8-fluoro-N-[1-(3-methoxyphenyl)ethyl]-1-[4-methoxy-2-(trifluoromethyl)phenyl]pyrrolo[1,2-d][1,2,4]triazin-4-amine] was 100 to 300 nM.
The result for `COc1ccc(-c2nnc(Nc3cc[nH]n3)n3ccc(F)c23)c(C(F)(F)F)c1` [Compound 117, 8-fluoro-1-[4-methoxy-2-(trifluoromethyl)phenyl]-N-(1H-pyrazol-3-yl)pyrrolo[1,2-d][1,2,4]triazin-4-amine] reads 10 to 100 nM; that for `OCCN1CCC[C@@H](Nc2nnc(-c3ccc(Br)cc3OC(F)F)c3cncn23)C1` [Compound 198, 2-[(3R)-3-({1-[4-bromo-2-(difluoromethoxy)phenyl]imidazo[1,5-d][1,2,4]triazin-4-yl}amino)piperidin-1-yl]ethan-1-ol], below 1 nM.
In the case of `COc1ccc(-c2nnc(N[C@H]3C[C@@](C)(O)C3)n3cccc23)c(CC(F)(F)F)c1` [Compound 1, (1s,3s)-3-({1-[4-methoxy-2-(2,2,2-trifluoroethyl)phenyl]pyrrolo[1,2-d][1,2,4]triazin-4-yl}amino)-1-methylcyclobutan-1-ol], the IC50 was in the range of 1 to 10 nM.
The value for `COc1ccc(-c2nnc(Nc3cc[nH]n3)n3cncc23)c(OC(F)(F)F)c1` [Compound 220, 1-[4-methoxy-2-(trifluoromethoxy)phenyl]-N-(1H-pyrazol-3-yl)imidazo[1,5-d][1,2,4]triazin-4-amine] was 100 to 300 nM; that for `COc1ccc(-c2nnc(N[C@H]3C[C@@](C)(O)C3)n3cncc23)c(OC(F)F)c1` [Compound 226, (1s,3s)-3-({1-[2-(difluoromethoxy)-4-methoxyphenyl]imidazo[1,5-d][1,2,4]triazin-4-yl}amino)-1-methylcyclobutan-1-ol] was 10 to 100 nM; that for `CN1CCC[C@@H](Nc2nnc(-c3ccc(C(F)(F)F)cc3CC(F)(F)F)c3cncn23)C1` [Compound 2, N-[(3R)-1-methylpiperidin-3-yl]-1-[2-(2,2,2-trifluoroethyl)-4-(trifluoromethyl)phenyl]imidazo[1,5-d][1,2,4]triazin-4-amine] was below 1 nM.
Take `CN1CCC[C@@H](Nc2nnc(-c3ccc(C(F)(F)F)cc3C(F)(F)F)c3c(F)ccn23)C1` [Compound 28, 1-[2,4-bis(trifluoromethyl)phenyl]-8-fluoro-N-[(3R)-1-methylpiperidin-3-yl]pyrrolo[1,2-d][1,2,4]triazin-4-amine]: the IC50 fell in the range of 1 to 10 nM.
The result for `C[C@]1(O)C[C@@H](Nc2nnc(-c3ccc(C4CC4)cc3OC(F)F)c3cncn23)C1` [Compound 345, (1s,3s)-3-({1-[4-cyclopropyl-2-(difluoromethoxy)phenyl]imidazo[1,5-d][1,2,4]triazin-4-yl}amino)-1-methylcyclobutan-1-ol] reads 1 to 10 nM.
The value for `COc1ccc(-c2nnc(N[C@@H]3CCCC[C@H]3O)n3cncc23)c(CC(F)(F)F)c1` [Compound 237, (1R,2R)-2-({1-[4-methoxy-2-(2,2,2-trifluoroethyl)phenyl]imidazo[1,5-d][1,2,4]triazin-4-yl}amino)cyclohexan-1-ol] was 1 to 10 nM.
For `FC(F)Oc1ccc(-c2nnc(Nc3cc[nH]n3)n3cncc23)c(OC(F)(F)F)c1` [Compound 296, 1-[4-(difluoromethoxy)-2-(trifluoromethoxy)phenyl]-N-(1H-pyrazol-3-yl)imidazo[1,5-d][1,2,4]triazin-4-amine], the IC50 lay within 10 to 100 nM.
The result for `FC(F)(F)c1ccc(-c2nnc(N[C@@H]3CCCN(C4CCCOC4)C3)n3cccc23)c(C(F)(F)F)c1` (stereo partly drawn) [Compound 6, 1-[2,4-bis(trifluoromethyl)phenyl]-N-[(3R)-1-(oxan-3-yl)piperidin-3-yl]pyrrolo[1,2-d][1,2,4]triazin-4-amine] reads 10 to 100 nM.
